# Like-named read-outs stand apart in the source and are kept apart here. Where a SMILES comes first, the peptide text is derived from it.
# Legend:
# Experiment in all cases: microscale thermophoresis
# Assay type in all cases: binding
# [1] = target: T1, orotate phosphoribosyltransferase (PyrE) (Escherichia coli, UniProt P0A7E3)
# T1 sequence (P0A7E3 2-213): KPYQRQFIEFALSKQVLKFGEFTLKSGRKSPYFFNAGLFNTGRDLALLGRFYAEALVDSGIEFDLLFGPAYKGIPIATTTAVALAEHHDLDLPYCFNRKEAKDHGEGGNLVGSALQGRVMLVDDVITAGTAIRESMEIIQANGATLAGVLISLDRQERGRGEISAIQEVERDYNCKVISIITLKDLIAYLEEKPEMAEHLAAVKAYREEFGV
# [2] = target: T1, orotate phosphoribosyltransferase (PyrE); remark: listed apart in the source
# FabF = target: T2, FabF (Escherichia coli, UniProt P0AAI5)
# T2 sequence (P0AAI5 2-413): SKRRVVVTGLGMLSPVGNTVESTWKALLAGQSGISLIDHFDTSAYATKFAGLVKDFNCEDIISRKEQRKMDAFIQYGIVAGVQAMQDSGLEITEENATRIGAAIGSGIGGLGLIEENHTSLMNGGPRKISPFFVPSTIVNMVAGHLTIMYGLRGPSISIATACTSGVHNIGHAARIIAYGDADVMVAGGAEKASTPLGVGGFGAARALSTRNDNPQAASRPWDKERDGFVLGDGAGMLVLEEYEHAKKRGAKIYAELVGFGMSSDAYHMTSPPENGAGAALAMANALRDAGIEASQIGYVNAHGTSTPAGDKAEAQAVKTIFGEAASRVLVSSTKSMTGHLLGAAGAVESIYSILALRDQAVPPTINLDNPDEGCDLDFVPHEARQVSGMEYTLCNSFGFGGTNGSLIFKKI
smiles,measurement,setting,value
Cc1cc2nc3[nH]c(=O)[nH]c(=O)c3nc2cc1C [lumichrome],Kd,[1],90.3 µM
O=P(O)(O)OC[C@H]1O[C@H](OP(=O)(O)OP(=O)(O)O)[C@H](O)[C@@H]1O [PRPP],Kd,[2],8.21 µM
CC(C)CC(NC(=O)C(N)C(C)C)C(=O)O (stereo not drawn) [Val-Leu] (H-Val-Leu-OH; configuration not given here),Kd,FabF,12 to 14 µM

# From PMC12148380 (iScience, 2025)
